Laboratory results: PMC10478803, “Contributions of the N-terminal flanking residues of an antigenic peptide from the Japanese cedar pollen allergen Cry j 1 to the T-cell activation by HLA-DP5” (International Immunology, 2023)
“Also recorded” adds a separate entry of the source.

Legend:
[1] = tested on: HLA-DP5 expressed on mDC1 cells; experiment: Cell-surface peptide-display assay on HLA-DP5-expressing mDC1 cells; conditions: 3.5 h at 37°C
Procedure: (§3) The DPA1-stable cells were established by the transduction of mouse antigen-presenting dendritic cell line 1 (mDC1) cells with a retrovirus containing pMXs-Puro/DPA1 and selection with puromycin (5 μg ml^−1). The DPA1-stable cells were subsequently transduced with pMXs-IB/DPB1 and selected with blasticidin (5 μg ml^−1), to obtain DPA1- and DPB1-stable cells. […] The cell-surface expression levels of HLA-DP were analyzed with an EPICS-XL (Beckman Coulter) or BD FACSCalibur (BD Biosciences) flow cytometer. HLA-DP was stained with anti-HLA-DP (B7/21) (Leinco Technologies), and mouse IgG3 (6A3) (MBL), as the isotype control, was stained with phycoerythrin-conjugated anti-mouse IgG3 (Santa Cruz Biotechnology). mDC1 cells with certain uniform levels of HLA-DP5 expression were collected and used for the quantitative assays of cell-surface peptide-display and IL-2 production. […]
(§4) The parent mDC1 cells without HLA-DP5 expression (HLA-DP5[−]), and the HLA-DP5-expressing mDC1 cells, HLA-DP5[WT], were diluted with DMEM to 1.0 × 10^6 cells ml^−1. […] Thereafter, the cells were stained with Hoechst 33342 (diluted 1: 1000, at 4°C) (Thermo Fisher Scientific), and analyzed by a flow cytometer (BD LSRFortessa X-20, BD Biosciences) for the fluorescent intensity in the whole cell (TAMRA, excited at 561 nm) and that on the cell surface (Alexa647, excited at 640 nm). […]

[2] = tested on: CD4^+ T-cell clones (SU3–2, SU3–3, NM-4, and NM-7); experiment: ^3H-thymidine incorporation assay of T-cell clone proliferation; type: cell-based, human; conditions: HLA-DP5-positive allogenic irradiated PBMCs as APCs
Procedure: (§1) Cloning of CD4^+ T cells was performed as described previously ([23]). A single, viable (7AAD^–), CD4^+, CFSE^dim cell was sorted into each well of a 96-well plate, which contained 100 μl of culture medium with feeder cells and cytokines, as described below. Irradiated (30 Gy) peptide-pulsed PBMCs (1.0 × 10^5) isolated from unrelated DPB1*05:01^+ donors were used as feeder cells in the cloning plates. Pooled human serum (5%) and IL-2 (100 U ml^−1) (Peprotech) were added at the indicated final concentrations to AIM-V medium (Life Technologies). Cells were fed every 7 days with fresh cytokine and peptide-pulsed PBMCs. Growing clones were identified by visual inspection, expanded into […] plates, and then tested for antigen specificity by ^3H-thymidine incorporation and cytokine production assays, using HLA-DP5 transfected K562 cells as antigen-presenting cells (APCs). […]
T-cell clones were tested for antigen specificity, using the ^3H-thymidine incorporation assay. […] The cells were then harvested and the incorporated radioactivity was measured by β-scintillation counting. […]
(§2) Fig. 4. […] HLA-restriction of T-cell clones was determined by addingvarious monoclonal antibodies (mAbs): anti-HLA-DR mAb (L243, BioLegend), anti-HLA-DQ mAb (SPV-L3, Abcam) or anti-HLA-DP mAb (B7/21, Abcam), at a final concentration of 10 μg ml^−1. […]

[3] = tested on: TCR(SU3–2)-TG40, TCR(SU3–3)-TG40, TCR(NM-4)-TG40, and TCR(NM-7)-TG40 cells; experiment: CD137^+ response of TCR-transfected TG40 cells; type: cell-based, mouse; conditions: in the presence of HLA-DP5-expressing cells
Procedure: as §1, with “(APCs). HLA-DP5-K562 cells were kindly provided by Dr H. Sugiyama, Osaka University. CD4^+ T-cell clones were stained with a PE-conjugated anti-human CD4 monoclonal antibody (mAb), and single cells were sorted into MicroAmp reaction tubes.” for “(APCs).”
as §2

CD4^+ T cells = experiment: CFSE assay of CD4^+ T-cell proliferation in PBMCs of HLA-DP5^+ CP patients; type: cell-based, human; conditions: PBMCs from HLA-DP5^+ CP patients
Procedure: Peripheral blood was obtained from HLA-DP5^+ CP patients. Peripheral blood mononuclear cells (PBMCs) were isolated by a density gradient technique, using Ficoll-Paque PLUS. The research protocol for collecting and using PBMCs from allergic patients was approved by the Institutional Review Board of Kyushu University.
The CFSE assay was performed as described previously ([24]). Briefly, PBMCs (1.0 × 10^7 cells ml^−1 in PBS) were incubated for 10 min with 5 μM CFSE (Molecular Probes). Staining was terminated by adding PBS containing 5% pooled human serum, and after the cells were washed three times in PBS containing 1% pooled human serum, they were resuspended in culture medium (RPMI-1640 containing 5% pooled human serum) at 2.0 × 10^6 cells ml^−1. Stained cells (2.0 × 10^6 cells well^−1, 1 ml) were cultured in 24-well plates with medium alone, pCj1 (final concentration, 10 μg ml^−1), or NF-pCj1 (10 μg ml^−1). After 7 days, the cells treated with each antigen were pooled, washed in PBS, and stained with anti-human CD4-allophycocyanin (IgG1, clone RPA-T4, BioLegend) and 7-amino-actinomycin D (7-AAD) (BD Pharmingen). Antigen-specific, viable CD4^+ T cells were identified as 7AAD^−, CD4^+, CFSE^dim cells, and the proliferation levels of these antigen-specific CD4^+ T cells were examined in each experiment.

[4] = tested on: CD4^+ T-cell clones (SU3–2, SU3–3, NM-4, and NM-7); experiment: Cytokine production by T-cell clones; type: cell-based, human; conditions: HLA-DP5-transfected K562 cells as APCs, 24 h, Bio-Plex
Procedure: as §1
Fig. 4. […] HLA-restriction of T-cell clones was determined by addingvarious monoclonal antibodies (mAbs): anti-HLA-DR mAb (L243, BioLegend), anti-HLA-DQ mAb (SPV-L3, Abcam) or anti-HLA-DP mAb (B7/21, Abcam), at a final concentration of 10 μg ml^−1. […] After 24 h, culture supernatants were collected and cytokine levels were measured using the Bio-Plex system (Bio-Rad). […] The T-cell surface activation marker CD137 of TCR(SU3–3)-TG40 and TCR(NM-4)-TG40 (GFP^+ 7AAD^− gated) was analyzed by flow cytometry. […]

[5] = tested on: TCR(SU3–3)-TG40 and TCR(NM-4)-TG40 cells; experiment: IL-2 production assay with HLA-DP5-expressing mDC1 cells; conditions: ELISA
Procedure: The DPA1-stable cells were established by the transduction of mouse antigen-presenting dendritic cell line 1 (mDC1) cells with a retrovirus containing pMXs-Puro/DPA1 and selection with puromycin (5 μg ml^−1). The DPA1-stable cells were subsequently transduced with pMXs-IB/DPB1 and selected with blasticidin (5 μg ml^−1), to obtain DPA1- and DPB1-stable cells. […] The cell-surface expression levels of HLA-DP were analyzed with an EPICS-XL (Beckman Coulter) or BD FACSCalibur (BD Biosciences) flow cytometer. HLA-DP was stained with anti-HLA-DP (B7/21) (Leinco Technologies), and mouse IgG3 (6A3) (MBL), as the isotype control, was stained with phycoerythrin-conjugated anti-mouse IgG3 (Santa Cruz Biotechnology). mDC1 cells with certain uniform levels of HLA-DP5 expression were collected and used for the quantitative assays of cell-surface peptide-display and IL-2 production.
Human CD4^+ TG40 cells were infected with the recombinant retroviruses by using retronectin (Takara Bio), according to the manufacturer’s instructions.
HLA-DP5-expressing mDC1 cells (5.0 × 10^3 cells per well) were cultured with NF-pCj1 for 3 h in 96-well flat-bottom plates.
T-cell response to NF-pCj1 presented by mDC1s.

[6] = tested on: mDC1 cells (mouse antigen-presenting dendritic cell line 1); experiment: Uptake of TAMRA-labeled NF-pCj1 into mDC1 cells; conditions: TAMRA MFI, 0.25–4 μM, 3.5 h at 37°C, flow cytometry
Procedure: as §3, §4

[7] = molecular target: pCj1–HLA-DP5^ec (extracellular regions of HLA-DP5 with the nine-residue core peptide pCj1 fused to the β chain) (human | Cryptomeria japonica) (UniProt P18632); experiment: SPR
[8] = molecular target: NF-pCj1–HLA-DP5^ec (HLA-DP5α protein and NF-pCj1–HLA-DP5β fusion protein, extracellular regions) (human | Cryptomeria japonica) (UniProt P18632); experiment: SPR
[9] = molecular target: T1, Cry j 1 (NF-pCj1, NF[WT]-pCj1) peptide on HLA-DPA1*02:02 / HLA-DPB1*05:01 (human); experiment: Kd or kinetics
T1 peptide: DKSMKVTVAFNQF

[10] = molecular target: T1, Cry j 1 (NF-pCj1, NF[WT]-pCj1) peptide …; experiment: cytokine release
[11] = molecular target: T2, Cry j 1 (pCj1) peptide on HLA-DPA1*02:02 / HLA-DPB1*05:01 (human); experiment: cytokine release
T2 peptide: KVTVAFNQF

[12] = molecular target: T2, Cry j 1 (pCj1) peptide on …; experiment: activation reporter or marker

DEEMKVTVAFNQF-GPN-EG2-TAMRA
effect of NF mutations on amount of cell-surface displayed peptide (in words) ([1]; 1 μM, same peptide dose and HLA-DP5 surface expression, Alexa647 MFI): halved the amounts of the cell-surface displayed peptide

DKSMKVTVAFNQF [NF-pCj1]
proliferative response of T-cell clones (in words) [2]: proliferated in response to NF-pCj1
response of TCR-transfected TG40 cells by CD137^+ cell number (in words) [3]: responded to NF-pCj1
CD4^+ T-cell proliferation and clone establishment (in words) (CD4^+ T cells): many CD4^+ T cells proliferating
cytokine production on stimulation (in words) [4]: produced IL-5, IL-10, and IL-13
IL-2 production by TCR-TG40 cells (in words) ([5]; HLA-DP5-expressing mDC1s pulsed 3 h, coculture 18 h, peptide 7 µg ml^−1 (Fig. 5A), 0.5–15 µg ml^−1 (Fig. 5B, C)): produced IL-2 in response to NF-pCj1

DKSMKVTVAFNQF-GPN-EG2-TAMRA [NF-pCj1–TAMRA]
amount of surface-displayed peptide per cell versus concentration (in words) ([1]; Alexa 647-labeled anti-TAMRA antibody MFI, 0.25–4 μM): nearly proportional to the peptide concentration in the range of 0.25–4 μM
uptake versus concentration in the medium (in words) [6]: proportional to its concentration in the medium

KVTVAFNQF [pCj1]
CD4^+ T-cell proliferation and clone establishment (in words) (CD4^+ T cells): some proliferation; also recorded: it was impossible to maintain the cell growth required to establish HLA-DP5-restricted CD4^+ T-cell clones

NF[S(P–2)E/K(P–3)E]-pCj1: double mutation of Ser(–2) and Lys(–3) to Glu in a 13-residue Cry j 1 peptide (NF-pCj1) (DEEMKVTVAFNQF)
effect of NF mutation on T-cell activation / IL-2 production (in words) ([5]; vs WT NF-pCj1, HLA-DP5-mDC1s, 18 h): dramatically reduced

TCR(SU3–3)^ec αβ molecule (extracellular regions of the TCR(SU3–3) α chain, residues 1–209, and β chain, residues 1–245, with an artificial interchain disulfide bond) (from UniProt A0A0A6YYJ7)
Kd [7]: 90.1 µM
Kd [8]: 92.5 µM

B1: TCR(SU3–3) (TCR)
alpha TRAV8-3*01 TRAJ34*01 CDR3: CAVAPTYNTDKLIF
beta TRBV7-9*03 TRBJ2-2*01 CDR3: CASSSKGGAGELFF
binding result [9]: recognises

B2: TCR(NM-4) (TCR)
alpha TRAV16*01 TRAJ48*01 CDR3: CALRSNFGNEKLTF
beta TRBV5-1*01 TRBJ2-2*01 CDR3: CASSLVVAGVYTGELFF
binding result [10]: recognises
binding result [11]: no recognition

B3: TCR(NM-7) (TCR)
alpha TRAV12-3*01 TRAJ27*01 CDR3: CGANAGKSTF
beta TRBV30*01 TRBJ2-7*01 CDR3: CAWSVMVWGSEGEQYF
binding result [10]: recognises
binding result [12]: no recognition
